The source of these data is paper PMC5429769, “Rational development of Stafib-2: a selective, nanomolar inhibitor of the transcription factor STAT5b” (Scientific Reports, 2017).

By Ki is commonly meant a dissociation constant, usually derived from enzyme kinetics or from competition with a known ligand. Read a low Ki as tighter binding. Usually IC50 stands for the concentration that gives 50% inhibition. Read a low IC50 as inhibition by little substance. As a reminder, the inhibition is how much of the control response was suppressed.

Holding throughout (format): binding
In one assay the target is T1, STAT5a SH2 domain (Homo sapiens, UniProt P42229).
T1 sequence (P42229 1-794): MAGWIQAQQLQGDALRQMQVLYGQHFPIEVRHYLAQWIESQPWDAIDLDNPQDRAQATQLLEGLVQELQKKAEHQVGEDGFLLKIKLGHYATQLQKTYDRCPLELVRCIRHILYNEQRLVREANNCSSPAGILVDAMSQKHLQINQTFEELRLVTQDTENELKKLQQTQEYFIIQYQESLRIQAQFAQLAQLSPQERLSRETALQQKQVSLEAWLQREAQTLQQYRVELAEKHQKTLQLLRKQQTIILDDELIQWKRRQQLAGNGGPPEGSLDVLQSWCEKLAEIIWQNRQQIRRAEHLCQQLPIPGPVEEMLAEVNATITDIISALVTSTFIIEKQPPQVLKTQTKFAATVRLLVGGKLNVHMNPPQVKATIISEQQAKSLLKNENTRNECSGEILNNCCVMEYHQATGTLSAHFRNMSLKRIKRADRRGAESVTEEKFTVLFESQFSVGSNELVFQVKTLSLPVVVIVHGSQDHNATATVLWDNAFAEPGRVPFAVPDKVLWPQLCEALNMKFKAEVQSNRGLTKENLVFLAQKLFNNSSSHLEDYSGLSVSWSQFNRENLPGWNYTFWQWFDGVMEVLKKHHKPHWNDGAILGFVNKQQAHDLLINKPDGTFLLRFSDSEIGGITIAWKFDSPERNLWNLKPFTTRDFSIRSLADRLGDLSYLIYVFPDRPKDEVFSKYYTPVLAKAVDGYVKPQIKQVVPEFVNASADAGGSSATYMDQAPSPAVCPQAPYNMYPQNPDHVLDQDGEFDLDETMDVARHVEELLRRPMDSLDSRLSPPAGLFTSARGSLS
Put plainly: Fluorescence polarization assay, STAT5a SH2 domain. The settings on record: mean ± s.d. In general terms: In fluorescence polarisation assays a small probe gives low polarisation when free and higher when bound to something large.

The target in a further assay is T2, STAT1 (Homo sapiens, UniProt P42224).
T2 sequence (P42224 1-750): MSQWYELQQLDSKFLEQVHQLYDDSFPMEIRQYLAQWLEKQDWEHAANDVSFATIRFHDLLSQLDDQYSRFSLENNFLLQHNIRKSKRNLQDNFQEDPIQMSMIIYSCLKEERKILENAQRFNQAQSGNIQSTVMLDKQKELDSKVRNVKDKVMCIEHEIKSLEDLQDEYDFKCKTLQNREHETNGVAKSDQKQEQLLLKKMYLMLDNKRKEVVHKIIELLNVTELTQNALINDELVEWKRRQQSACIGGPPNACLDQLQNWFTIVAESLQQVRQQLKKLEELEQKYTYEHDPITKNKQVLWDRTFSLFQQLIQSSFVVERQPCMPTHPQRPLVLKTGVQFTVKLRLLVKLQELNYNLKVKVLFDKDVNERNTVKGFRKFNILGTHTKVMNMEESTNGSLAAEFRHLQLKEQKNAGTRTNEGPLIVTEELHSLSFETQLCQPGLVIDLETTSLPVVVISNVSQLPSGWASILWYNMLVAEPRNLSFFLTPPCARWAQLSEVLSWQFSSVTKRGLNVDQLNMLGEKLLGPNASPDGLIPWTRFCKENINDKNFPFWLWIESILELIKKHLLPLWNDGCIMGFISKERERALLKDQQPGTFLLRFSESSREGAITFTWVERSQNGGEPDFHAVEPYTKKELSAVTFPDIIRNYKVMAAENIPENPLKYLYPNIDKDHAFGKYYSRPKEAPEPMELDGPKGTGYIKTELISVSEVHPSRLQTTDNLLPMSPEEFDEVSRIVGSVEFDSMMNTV
Put plainly: Fluorescence polarization assay, STAT1.

In the next assay the target is T3, STAT4 (Homo sapiens, UniProt Q14765).
T3 sequence (Q14765 1-748): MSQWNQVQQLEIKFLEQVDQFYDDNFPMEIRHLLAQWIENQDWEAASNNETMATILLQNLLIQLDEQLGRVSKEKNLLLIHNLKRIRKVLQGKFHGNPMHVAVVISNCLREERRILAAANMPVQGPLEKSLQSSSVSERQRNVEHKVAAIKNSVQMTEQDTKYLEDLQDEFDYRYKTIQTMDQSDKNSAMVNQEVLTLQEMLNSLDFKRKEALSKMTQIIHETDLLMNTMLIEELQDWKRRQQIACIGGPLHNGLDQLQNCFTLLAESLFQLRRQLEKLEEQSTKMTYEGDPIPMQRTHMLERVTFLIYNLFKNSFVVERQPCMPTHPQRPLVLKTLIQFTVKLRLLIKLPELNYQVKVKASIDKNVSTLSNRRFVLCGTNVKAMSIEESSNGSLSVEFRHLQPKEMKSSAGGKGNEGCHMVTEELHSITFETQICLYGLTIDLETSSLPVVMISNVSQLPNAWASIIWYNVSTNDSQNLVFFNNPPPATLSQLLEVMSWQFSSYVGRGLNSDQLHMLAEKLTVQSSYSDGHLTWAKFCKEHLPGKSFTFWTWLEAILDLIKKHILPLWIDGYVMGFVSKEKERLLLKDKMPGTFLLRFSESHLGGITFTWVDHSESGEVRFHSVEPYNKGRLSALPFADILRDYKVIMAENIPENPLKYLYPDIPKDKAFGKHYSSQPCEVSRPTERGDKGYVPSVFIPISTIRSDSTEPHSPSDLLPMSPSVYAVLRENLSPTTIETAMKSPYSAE
The assay is described as follows: Fluorescence polarization assay, STAT4.

Another assay concerns the target T4, Lck SH2 (Homo sapiens, UniProt P06239).
T4 construct: the more distantly related SH2 domain of the tyrosine kinase Lck
Put plainly: Fluorescence polarization assay, Lck SH2. The settings on record: read-out: Lck SH2 maximum inhibition.

Each structure is given as a SMILES string.

T4 sequence (P06239 127-224 limits assumed): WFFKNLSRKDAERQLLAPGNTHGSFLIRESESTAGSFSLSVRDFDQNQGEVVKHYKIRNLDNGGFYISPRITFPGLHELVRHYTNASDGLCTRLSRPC

In the case of `O=C(COc1ccc(C(=O)Nc2ccc(Oc3ccccc3)cc2)cc1)NCc1ccc(OP(=O)(O)O)c(OP(=O)(O)O)c1` [compound 4, 4-((2-(4-((4-phenoxyphenyl)carbamoyl)phenoxy)acetamido)methyl)-1,2-phenylene bis(dihydrogen phosphate)], the Ki on STAT5a SH2 domain (converted from IC50 using the published equation, n = 3) is 1.3 ± 0.1 µM; at STAT1 (converted from IC50 using the published equation), 22.8 ± 1 µM. Further, the IC50 at STAT5a SH2 domain (fluorescence polarization, three independent experiments) came to 2.7 ± 0.2 µM; against STAT1 (fluorescence polarization) it was 46 ± 2 µM; against STAT4, 9.1 ± 0.3 µM. In addition, the inhibition at 40 µM on Lck SH2 amounted to 25 ± 2%.
